Reference: US20210147544A1, “METHODS AND COMPOSITIONS FOR TARGETED DELIVERY OF ACTIVE AGENTS AND IMMUNOMODULATORY AGENTS TO LYMPH NODES” (IMMUNOVACCINE TECHNOLOGIES INC., priority 2018, published 2021)
Each block holds one molecule with its values, some of them ahead of it.

Key:
[1] = Evans Blue (EVB) positive cells in LN, blood, liver, spleen by flow cytometry; format: in vivo, C57B1/6 mice
Description: (§1) C57B1/6 mice (n=3 per time point) were injected subcutaneously on study day 0 with 1 mg of Evans Blue (EVB) dye formulated either in a composition of the invention (DPX, group 1) or in an aqueous solution (group 2). Control groups were injected subcutaneously with DPX not containing EVB (group 3) or not given an injection (group 4). DPX compositions were prepared according to the methods detailed in Example 1. The freeze-dried vial was reconstituted in Montanide® ISA 51 VG (SEPPIC, France). Cells were collected from the vaccine-draining lymph nodes (LN), blood, liver, and spleen from 2-3 mice of each group on study days 1, 2, 5, and 7, and the cells were stained to detect different cell populations by flow cytometry.
EVB (MW 960.81 g/mol) is a membrane impermeant dye with high affinity for serum albumin that can penetrate into non-viable cells or be actively internalized by phagocytic cells, such as macrophages and dendritic cells.

[2] = Photographs of plasma, skin and draining lymph node after EVB injection; format: in vivo, C57B1/6 mice
Description: as §1

[3] = Body weights of C3 tumour mice during EPA treatment; format: in vivo; conditions: all with mCPA (PO), oral EPA given with DPX-FP
Description: Mice (n=8 per group) were implanted with C3 cancer cells on study day 0. Mice in all treatment groups were treated with 0.4 mg metronomic cyclophosphamide (mCPA) daily for seven days through drinking water starting on study day 7 and 21 (oral administration: PO). One group was untreated as a control. One treatment group was treated with epacadostat (EPA) through oral gavage 6 mg/day for five days starting on study day 14 for a total EPA dose of 30 mg over 5 days. Mice were treated with a composition of the invention (DPX) containing either FP alone (DPX-FP) or FP in combination with EPA (DPX-FP/EPA, 1 mg EPA). DPX was administered by subcutaneous injection to the treatment groups on study day 14 and 28, for a total EPA dose of 2mg over […] in the group receiving DPX-FP/EPA. The DPX compositions were prepared according to the methods detailed in Example 1. All DPX-FP and DPX-FP/EPA formulations contained 20 micrograms of DNA based PolyI:C polynucleotide adjuvant. The freeze-dried vials were reconstituted in 0.7 mL of Montanide® ISA 51 VG (SEPPIC, France) to obtain a clear solution (FIG. 1; Panel D).

[4] = AlexaFluor488 (AF488) positive cells in LN, blood, liver, spleen by flow cytometry; format: in vivo, C57B1/6 mice
Description: as §1, with “mice (n=2-3” for “mice (n=3”, “with 0.1” for “with 1”, “of AlexaFluor488 hydrazide (AF488)” for “of Evans Blue (EVB)”, “containing AF488” for “containing EVB”
AF488 (MW 773.91 g/mol) is a membrane impermeant fluorescent dye that can be actively internalized by phagocytic cells, such as macrophages and dendritic cells.

lymph node cells = format: in vivo, C57BL/6 mice; conditions: group E: 20 mg/kg/day CPA in drinking water for seven days before FP/PolyI:C composition; vs group F
Description: Pathogen free, C57BL/6 mice, 6-8 weeks of age, were purchased from Charles River Laboratories (St. Constant, PQ) and housed according to institutional guidelines with water and food ad libitum under filter controlled air circulation.
(§2) Mice in group A (n=5) were injected in the right flank with 50 microliters of the CPA composition containing 0.04 milligrams of CPA and injected in the left flank with 50 microliters of the FP/DNA based PolyI:C polynucleotide composition containing 10 micrograms of FP and 20 micrograms of DNA based polyl:C polynucleotide adjuvant.
as §2, with “group B” for “group A”, “containing 0.4” for “containing 0.04”
Mice in group C (n=5) were injected in the right flank with 50 microliters of the CPA/FP/PolyI:C composition containing 0.04 milligrams of CPA and 10 micrograms of FP and 20 micrograms of DNA based polyI:C polynucleotide adjuvant.
Mice in group D (n=5) were injected in the right flank with 50 microliters of the CPA/FP/PolyI:C composition containing 0.4 milligrams of CPA and 10 micrograms of FP and 20 micrograms of DNA based polyI:C polynucleotide adjuvant. […]

[5] = 1 mg EVB s.c., days 1, 2, 5, 7, significance compared to group 3
[6] = by day 2, including CD3+ T cells
[7] = 0.1 mg AF488 s.c., days 1, 2, 5, 7, significance compared to group 3

- macrophages and T cells EVB+ in the liver ([1]; by day 1-2): ~100%
- cells EVB+ in the spleen ([1]; by day 1-2, including CD3+ T cells): ~100%
- cells EVB+ in the LN [1, 6]: ~100%
- cells EVB+ in the blood [1, 6]: ~100%
- blue colouration of skin, injection site and draining LN (FIG. 13) ([2]; 1 mg EVB s.c.): turned blue
- colour of plasma (FIG. 12) ([2]; days 1, 2, 5, and 7 after injection): dark blue
Molecule: Cc1cc(-c2ccc(/N=N/c3ccc4c(S(=O)(=O)O)cc(S(=O)(=O)O)c(N)c4c3O)c(C)c2)ccc1/N=N/c1ccc2c(S(=O)(=O)O)cc(S(=O)(=O)O)c(N)c2c1O [EVB in aqueous solution, Evans Blue]
- EVB+ CD11c+ dendritic cells in the liver ([1]; 1 mg EVB s.c.): a large number dendritic cells were EVB+ by day 2
- EVB+ CD11b+ cells in the LN (FIG. 10A) [1, 5]: significant number of EVB^+ CD11b^+ cells on all days tested
- EVB+ CD11b+ cells in the blood (FIG. 10D) [1, 5]: significant number of EVB^+ CD11b^+ cells on all days tested
- EVB+ CD11b+ cells in the liver (FIG. 10G) [1, 5]: significant number of EVB^+ CD11b^+ cells on all days tested
- EVB+ CD11b+ cells in the spleen (FIG. 10J) [1, 5]: significant number of EVB^+ CD11b^+ cells on all days tested
- EVB+ T cells in the LN (FIG. 10C) [1, 5]: significant number of EVB^+ T cells on all days tested
- EVB+ T cells in the blood (FIG. 10F) [1, 5]: significant number of EVB^+ T cells on all days tested
- EVB+ T cells in the liver (FIG. 10I) [1, 5]: significant number of EVB^+ T cells on all days tested
- EVB+ T cells in the spleen (FIG. 10L) [1, 5]: significant number of EVB^+ T cells on all days tested
- EVB+ dendritic cells in the LN (FIG. 10B) [1, 5]: significant number of EVB^+ dendritic cells on all days tested
- EVB+ dendritic cells in the blood (FIG. 10E) [1, 5]: significant number of EVB^+dendritic cells on all days tested
- EVB+ dendritic cells in the liver (FIG. 10H) [1, 5]: significant number of EVB^+ dendritic cells on days 2 and 7
- EVB+ dendritic cells in the spleen (FIG. 10K) [1, 5]: significant number of EVB^+dendritic cells on all days tested
- EVB release into and clearance from the LN (FIGS. 10A-C) ([1]; 1 mg EVB s.c., days 1 to 7): had still not been cleared from the LN by day 7
- EVB release into and clearance from the blood (FIGS. 10D-F) ([1]; 1 mg EVB s.c., days 1 to 7): still not been cleared from the blood by day 7
- EVB release into and clearance from the spleen (FIGS. 10J-L) ([1]; 1 mg EVB s.c., days 1 to 7): still saturated in CD11b+ macrophages and T cells by day 7
- saturation of cell types in the blood with EVB ([1]; 1 mg EVB s.c., days 1 to 7): CD11b+ macrophages and CD3+ T cells that were still nearly saturated on day 7

Molecule: NS(=O)(=O)NCCNc1nonc1C(=NO)Nc1ccc(F)c(Br)c1 [oral EPA (PO), epacadostat]
- weight loss during treatment (body weights) [3]: significant weight loss during treatment

- AF488 release into the blood (FIGS. 11D-F) ([4]; 0.1 mg AF488 s.c.): quickly peaked at day 1
- circulating CD11b+ cells being AF488+ ([4]; blood, days 1-2): over 70%
Molecule: AlexaFluor488 hydrazide [AF488 in aqueous solution]
- release of AF488 into the spleen (FIGS. 11G-I) ([4]; 0.1 mg AF488 s.c.): rapid and significant release of AF488 into the spleen in all cell types
- AF488+ CD11b+ cells in the LN (FIG. 11A) [4, 7]: significant number of AF488^+CD11b^+ cells on days 1 and 2
- AF488+ CD11b+ cells in the blood (FIG. 11D) [4, 7]: significant number of AF488^+ CD11b^+ cells on days 1 and 2
- AF488+ T cells in the LN (FIG. 11C) [4, 7]: significant number of AF488^+ T cells on day 1
- AF488+ T cells in the blood (FIG. 11F) [4, 7]: significant number of AF488^+ T cells on days 1 and 2
- AF488+ T cells in the liver (FIG. 11I) [4, 7]: significant number of AF488^+ T cells on all days collected
- AF488+ dendritic cells in the LN (FIG. 11B) [4, 7]: significant number of AF488^+ dendritic cells on day 1
- AF488+ dendritic cells in the blood (FIG. 11E) [4, 7]: significant number of AF488^+ dendritic cells on days 1 and 2
- AF488+ dendritic cells in the liver (FIG. 11H) [4, 7]: significant number of AF488^+ dendritic cells on days 1, 2, and 5
- AF488+ monocytes in the liver (FIG. 11G) [4, 7]: significant number of AF488^+ monocytes on days 1, 2, and 5
- AF488 release into and clearance from the LN (FIGS. 11A-C) ([4]; 0.1 mg AF488 s.c., days 1 to 7): quickly peaked at day 1 and AF488 was cleared by day 5-7

Molecule: O=P1(N(CCCl)CCCl)NCCCO1 (centres unmarked) [CPA, N,N-bis(2-chloroethyl)-1,3,2-oxazaphosphinan-2-amine 2-oxide]
- total lymph node cell counts (lymph node cells): significantly lower cell counts compared to group F
